Measurements from article doi:10.1101/2022.12.25.521902v1 (biorxiv, 2022).

Test system: MsC17OMT (MsOMT1)
Assay: LC-MS/MS methyltransferase assay, Michaelis-Menten fit
Assay type: biochemical, Mitragyna speciosa
Details: 100 μM SAM, Tris-HCl pH 7.5, 30 °C, 2 min

Row | Km [µM] | Structure (SMILES)
1 | 5.3 | C/C=C1/CN2CCc3c([nH]c4ccccc34)[C@@H]2C[C@@H]1/C(=C/O)C(=O)OC [compound 3, 19E-geissoschizine]
2 | 12.8 | C/C=C1\CN2CCc3c([nH]c4ccccc34)[C@@H]2C[C@@H]1/C(=C/O)C(=O)OC [compound 4, 19Z-geissoschizine]
